According to patent US20040029208A1, “Assay method and kit for testing biological material for exposure to stress using biomarkers” (priority 2000, published 2004):

How the values were obtained:
Assay type in all cases: in vivo
Anagallis arvensis [1] = experiment: TLC plant biomarker pattern after herbicide spraying (greenhouse)
Protocol: (§1) The experiments were performed in the green-house at the National Environmental Research Institute, Silkeborg, Denmark. All the seeds needed light to germinate, and were sown at the soil surface in individual 11 cm pots. The soil used during the experiments contained: (SM Growing Mould (Growing medium by special soil (sphagnum) added clay granulate), 0-30 mm; grade of turnover 55-75; added per m^3: 3 kg lime (white chalk), 1.5 kg dolit chalk, 40 kg clay granulate; Fertilizer added granulate: NO3-N: 55.0 g; NH4-N: 65.0 g; P: 106.6 g; K: 224.0 g; Mg: 22 g; Micro nutrients added in chelate form, Mo in uorganic form: B-Boron: 1 g; Cu-copper: 6 g; Mn-Manganese: 3 g; Zinc-Zn: 3 g: Fe-iron: 6 g; Mo- molybdenum: 1.4 g).
(§2) During the experiments plants were watered from below, and the temperature in the green-house was maintained between 15° C. and 25° C. with variations due to external weather, and the photoperiod was 16th daylight. The green-house is divided into different units, which allowed for the separate maintenance of the control plants from the sprayed plants to avoid undesirable effects due to vapour drift.
(§3) Glyphosate (Roundup Bio (360 g L^−1) was supplied by Monsanto Denmark A/S. Recommended field dose=1,44 kg a.i. ha^−1. In all the experiments, an automatic sprayer (designed in Denmark by Jens Kristensen 1994) was used where the herbicide application is achieved by moving boom equipment with two ordinary hydraulic flat fan nozzles (Hardi 4110-16). Two pots per spray event were placed in the middle of the spray chamber at 50 cm distance from the nozzle, delivering 200 L of water per-hectare with a desired herbicide concentration (working pressure 2 bars; speed of spray boom=4.7 km h^−1). The spraying was performed starting with the lowest concentration first, progressing towards the highest concentration. Between each herbicide, the sprayer was thoroughly rinsed several times with water. The control plants were sprayed with water.
(§4) The fresh plant material was pressed using a hand press. The extract was immediately centrifuged. (3000 rpm) for 10 minutes. The supernatant was used for analysis. The extracts were kept cool or right above 0° C. during the test to avoid decomposition of biomarkers.
(§5) Freeze-dried plant material was crushed and 250 mg was extracted with 5.00 ml 75% ethanol in an ultrasonic bath for 2 hours. The temperature was kept <0° C. (using ice) during the extraction to avoid decomposition of biomarkers. The extract was centrifuged (3000 rpm) for 10 minutes. The supematant was used for analysis and were kept cool during the test to avoid decomposition of biomarkers.
(§6) The two extracts (freshtfresh ethanol) were applicated immediately on a TLC plate (10 μl on both TLC-Plate types (see below) using cool air-drying. The 75% ethanolic extract was applicated 10 μl on Silica-gel TLC-plates and 5 μl on Cellulose TLC-plates (see below). The fresh/fresh ethanolic extractsare recommended to perform if fresh plant material are to be analysed (field-test). The freeze-dried or frozen plant material extraction Is recommended if the analysis are performed in the laboratory.
[…] Derivatisation: Stock solution 1:50% sulfuric acid in 96% ethanol; Stock solution 2: 2% vanillin in absolut alcohol; Derivatisation-solvent, Fresh produced before us, stock solution 1 and stock solution 2 (1:10); Aftercare: 120° C. in 2-3 min. The plate is valuated visually. The system detects higher alcoholics, phenolic compounds, steroids and etheric oils (Stahl 1969), terpenoids, phenyl propanolds, phenolic compounds (Wagner etea. 1984)
TLC-System 7: HPTLC-Alufolie Silica Gel 60 F2u, Merck 1.05548 (10×10 cm); 10 μl plant extracts plants exposed to glyphosate and control plants; eluted in n-butanol: acetic acid: water (4:1:5) (upper phase after 5 minutes shaking). Derivatisation: 0,5 g p-anisaldehyde diluted in 10 ml conc. acetic acid and 85 ml absolute alcohol is and 5 ml conc. sulfuric acid (added in the following row). The plate is heated to. […]

Centauréa cýanus [2] = experiment: as above
Plantágo lanceoláta [3] = experiment: as above
Protocol: as §1, §2, §3, §4, §5, §6
(§7) TLC-System 1: HPTLC-Alufolie Silica Gel 60 F254, Merck 1.05548 (10×10 cm); 10 μl plant extracts plants exposed to glyphosate and control plants; eluted in n-butanol acetic acid: water (4:1:5) (upper phase after 5 minutes shaking). Derivatisation: Stock solution 1:50% sulfuric acid in 96% ethanol; Stock solution 2: 2% vanillin in absolut alcohol; Derivatisation-solvent, Fresh produced before us, stock solution 1 and stock solution 2 (1:10); Aftercare: 120° C. in 2-3 min. The plate is valuated visually. The system detects higher alcoholics, phenolic compounds, steroids and etheric oils (Stahl 1969), terpenoids, phenyl propanolds, phenolic compounds (Wagner etea. 1984) […]

Lólium perénne [4] = experiment: as above
Centauréa cýanus [5] = experiment: Visual effect rating (0-9) after herbicide spraying
Description: (§8) Four, eight, sixteen and thirty two days after spraying, visual effects on plants were noted before harvest, using the rating chart described in Hamil. et al. (1977) and Boutin et al. (1993); a rating of zero indicates full growth and vigour, and a rating of nine indicates no growth/mortality.
(§9) The min. visual effect (VE) of the presence of plant biomarkers is rated as described by Hamil et al., (1977) and Boutin et al. (1993).

Plantágo lanceoláta [6] = experiment: as above
Description: as §8, §9

Anagallis arvensis [7] = experiment: as above; details: at presence of TLC 7 biomarker
Description: as §8, §9

Lólium perénne [8] = experiment: as above
Description: as §8, §9

Lólium perénne [9] = experiment: TLC plant biomarker pattern after herbicide spraying (greenhouse); details: TLC 1 (non-specific compounds)
Protocol: as §1, §2, §3, §4, §5, §6, §7

[10] = at presence of TLC 4d biomarker

Row | Compound | Min. of label dose of herbicide with effect (Anagallis arvensis [1]; TLC 7 (non-specific compounds)) [%] | Min. of label dose of herbicide with effect (Centauréa cýanus [2]; TLC 2 (phenolic compounds)) [%] | Min. of label dose of herbicide with effect (Centauréa cýanus [2]; TLC 7 (non-specific compounds)) [%] | Min. of label dose of herbicide with effect (Centauréa cýanus [2]; TLC 4d (amino acids)) [%] | Min. of label dose of herbicide with effect (Plantágo lanceoláta [3]; TLC 2 (phenolic compounds)) [%] | Min. of label dose of herbicide with effect (Plantágo lanceoláta [3]; TLC 6 (lipids and terpens)) [%] | Min. of label dose of herbicide with effect (Plantágo lanceoláta [3]; TLC 4d (amino acids)) [%] | Min. of label dose of herbicide with effect (Lólium perénne [4]; TLC 6 (lipids and terpens)) [%] | Min. of label dose of herbicide with effect (Lólium perénne [4]; TLC 7 (non-specific compounds)) [%] | Min. visual effect (Plantágo lanceoláta [6]; at presence of TLC 2 biomarker) | Min. visual effect (Plantágo lanceoláta [6]; at presence of TLC 6 biomarker) | Min. visual effect (Anagallis arvensis [7]) | Min. visual effect (Lólium perénne [8]; at presence of TLC 7 biomarker) | Min. visual effect (Lólium perénne [8]; [10]) | also measured
1 | COC(=O)c1ccccc1S(=O)(=O)NC(=O)Nc1nc(C)nc(OC)n1 [Metsulfuron methyl] | 1 | 1 | 1 | 1 | 1 | 10 | 1 | 10 | 10 | 0 | 2 | 1 | 0 | 0 | Min. of label dose of herbicide with effect (Centauréa cýanus [2]; TLC 6 (lipids and terpens)): 1%; Min. of label dose of herbicide with effect (Plantágo lanceoláta [3]; TLC 1 (non-specific compounds)): 1%; Min. of label dose of herbicide with effect (Plantágo lanceoláta [3]; TLC 7 (non-specific compounds)): 10%; Min. visual effect (Centauréa cýanus [5]; at presence of TLC 6 biomarker): 0; Min. visual effect (Centauréa cýanus [5]; at presence of TLC 7 biomarker): 0; Min. visual effect (Plantágo lanceoláta [6]; at presence of TLC 1 biomarker): 0; Min. visual effect (Plantágo lanceoláta [6]; at presence of TLC 7 biomarker): 3; Min. visual effect (Lólium perénne [8]; at presence of TLC 1 biomarker): 0; Min. visual effect (Lólium perénne [8]; at presence of TLC 6 biomarker): 0
2 | CCC(CC)Nc1c([N+](=O)[O-])cc(C)c(C)c1[N+](=O)[O-] [Pendimethalin] | 10 | 1 |  | 1 | 1 | 1 | 1 |  | 1 | 0 | 0 | 3 | 0 | 0 | Min. of label dose of herbicide with effect (Anagallis arvensis [1]; TLC 1 (non-specific compounds)): 10%; Min. of label dose of herbicide with effect (Anagallis arvensis [1]; TLC 4d (amino acids)): 1%; Days after exposure (biomarker present) (Lólium perénne [4]; TLC 7 (non-specific compounds)): 8, 16 days; Days after exposure (biomarker present) (Lólium perénne [4]; TLC 4d (amino acids)): 4, 8, 16, 32 days; Min. of label dose of herbicide with effect (Lólium perénne [4]; TLC 4d (amino acids)): 1%; Min. visual effect (Centauréa cýanus [5]; at presence of TLC 2 biomarker): 0; Min. visual effect (Centauréa cýanus [5]; [10]): 0; Min. visual effect (Plantágo lanceoláta [6]; [10]): 0
3 | Bromoxynil | 1 | 10 | 1 |  |  |  |  | 10 |  |  |  |  |  |  | Min. of label dose of herbicide with effect (Anagallis arvensis [1]; TLC 6 (lipids and terpens)): 1%; Min. of label dose of herbicide with effect (Lólium perénne [9]): 1%
